Assays:
[1] = test system: human polyclonal IgG; experiment: Screening ELISA of phage display clones (crude extracts) against human polyclonal IgG; format: binding; design: key: High: high binders (Abs>0.4); Moderate: moderate signal; details: crude extract of clones from 6th panning round, 1 µg/well human polyclonal IgG, blocked 3% (w/v) BSA in TBS, 50 µL extract 1 h at 37 °C, Anti-HA tag-HRP, ABTS, Abs405nm
Experimental: The biopanning of the previously developed WWp5_4 library ([Dias et al., 2025]) (Figures 1A,B) against human polyclonal IgG was performed for six rounds, after which an enrichment of ligands was observed (Supplementary Table S3). To assess the binding of each clone to the target, 192 clones were selected and expressed at small scale in 96-deep well blocks, following conditions previously optimised. After cell lysis, the supernatant containing the soluble fraction was used for ELISA assays. The results in Figure 1C illustrate the difference in the absorbance profile of the screened ligands. […] From these 26, only 21 presented high quality for reliable sequencing results. The sequence alignment and diversity of the different binders is represented in Table 1 and Figure 2A.
Small Scale Protein Expression and screening ELISA: From the output of the 6th round of panning, 94 isolated colonies were peaked into two sterile 96-well deep well 2mL round-bottom plates and grown with 200 µL of LB with ampicillin, 125 rpm, 37 °C, overnight (master plates). The following day, to one of the master plates was added glycerol to achieve a final concentration of 15% and was stored at -80 °C. Regarding the other master plate, 12 µL of this culture was added to another sterile 96-well deep well 2 mL round-bottom plate with 1.2 mL of LB with ampicillin and was grown at 37 °C, 125 rpm until OD600nm achieved 0.5-0.6. After this, protein expression was induced with 1 mM IPTG and continued incubation with the previous conditions. The following day, the cultures were sonicated for 30 minutes in ice-water bath and centrifuged for 10 minutes at 2500 x g. The supernatant was collected and transferred to a new microplate to be used in the screening for the ELISA (crude extract). For the ELISA, three microplates were tested: A) Sample binding plate; B) Negative control plate; C) Expression plate. On the sample binding plate, 1 µg/well of human polyclonal IgG was immobilized on the plate at 4 °C, overnight. On the following day, the target was removed, and the wells were washed once with TBS, then the plate was blocked with 300 µL 3% (w/v) BSA in TBS for 1 hour at 37 °C. After this, the wells were washed once with TBS, and were then incubated with 50 µL of crude extract (containing WW domain) for 1 hour at 37 °C. The plate was then washed 5 times with TBS-T, and then incubated with 100 µL of the Anti-HA tag-HRP conjugated antibody (diluted 1:1000) for 1 hour at 37 °C. The plate was then washed once with TBS-T and 4 times with TBS, and then incubated with the substrate ABTS for 1 hour at the dark at 37 °C. The results were then analysed in a microplate reader (TECAN) and the Abs405nm was then measured.
For the Negative control plate the protocol was the same as for the Binding microplate, except for the target immobilization. Instead of having IgG, only coating buffer was added. This plate allows to detect clones that unspecific bind to BSA present in the Blocking Buffer. For the Expression plate the protocol started at the step of incubation with the crude extract, and from there the steps were the same as the Binding microplate. This plate allows to detect clone’s basal expression level.

[2] = test system: human IgG; experiment: Microscale Thermophoresis (MST) with IgG-FITC; format: binding
Experimental: For MST assays of E6, IgG was conjugated with fluoresceine isothiocyanate (FITC) using standard protocols. The conjugated IgG-FITC was used at a fixed concentration of 50nM and 16 serial dilutions of E6 protein (from 23.5 µM to 0.7 nM) were made in 50 mM MOPS 0.05% (v/v) Tween-20 pH 7.
For MST assays of E6_M2_T2, the target was hIgG-FITC (F9636, Sigma) at a constant concentration of 25 nM. For the E6_M2_T2 ligand, 16 samples were prepared in variable concentrations starting from 695 nM and using a serial dilution of 1:2 up to a minimum concentration of […] using PBS1x-0.05% (v/v) Tween-20 pH7.4.
Samples were transferred to a standard capillary (Monolith NT.115 Capillary, Nanotemper) with the following settings: medium MST-power, excitation power at 20%, with excitation in Nano-Blue, with thermostat at 25 °C. The signal of the samples was read in triplicates using a Monolith NT.115 (Nanotemper) and the signal was processed in the manufacturer software with FitModel: Kd and Hill. The binding parameters (KD and EC50) and were estimated automatically in the MST software.

[3] = Solubility / precipitation observed during production, dialysis and purification; format: physicochemical
Experimental: Therefore, after expression the soluble fractions were further centrifuged at 42,000 g for 20 min at 4 °C. As the samples were diluted (∼5 mg/mL in 25 mL lysis buffer), the soluble fractions were lyophilized and resuspended in 4 mL of water. The samples were dialyzed (Membranes Spectra Pre-Treated 1 kDa, Carl Roth) to Binding buffer without imidazole (20 mM Sodium Phosphate, 500 mM Sodium Chloride pH 7.4) for 24 h at 16 °C. The samples were quantified by […] (typically ∼6 mg/mL), this solution was diluted 1:2 in Binding buffer (20 mM Sodium Phosphate, 500 mM Sodium Chloride, 20 mM imidazole pH 7.4) and purified in a gravitational flow with 6 mL of resin (IMAC Sepharose 6 Fast Flow (Ni^2+), Cytiva) packed in a PD-10 column. The column was prepared using the indications of the manufacturer. The binding of the protein to the column was maximized by an incubation for 1 h at room temperature in agitation at 40rpm. The resin was washed 4 x column volumes (CV) with binding buffer. The elution as achieved by incubation for 15min with elution buffers. We used a gradient with 3 x CV elution buffer 1 (binding buffer with 100 mM imidazole) and 3 x CV elution buffer 2 (binding buffer with 200 mM imidazole).
The most enriched elutions in WW domains (60%–70% purity) were combined and dialysed against PBS1x (10 mM Na2HPO4, 1.8 mM KH2PO4, 2.7 mM KCl, 137 mM NaCl pH 7.4) with routine changes of buffer up to 48 h at 16 °C. Following the samples were concentrated with a Amicon-Ultra15 3 kDa MWCO (Millipore) with centrifugation conditions 4,900 g, 30 min, 4 °C. The final samples were quantified by BCA assay.
Size Exclusion Chromatography (SEC). The samples were further purified by SEC to achieve 90% purity in a AKTA system (Cytiva). The column Superdex 75 Increase 10/300 GL (29148721, Cytiva) was washed with water and equilibrated 2CV in PBS1x, as described by the manufacturer. As calibrants we prepare a mixture: 2 mg/mL of Bovine Serum Albumin (66 kDa, BP9702-100, FisherScientific), Ovalbumin (42 kDa, A5503-1G, Sigma), Chicken Lysozyme ([…], 62,971–10G-F, Fluka) and hPin1_WW chemically synthesized (5 kDa, produced in ([Dias et al., 2015])) in PBS 1x, this sample was filtered with 0.2 µm PES (514–0073, VWR) and analysed. The operation conditions: flow 0.5 mL/min, 0.05 CV in PBS1x and injection of 250 µL and run for 2 CV with PBS 1x at 16 °C. The same method was used for the WW domain samples. After purifications samples were quantified for total protein by BCA assay, as described previously and used for characterization.

[4] = molecular target: human polyclonal IgG (human); experiment: ELISA; hIgG immobilised (1 ug/well) in 0.1 M sodium bicarbonate pH 8.6 on Maxisorp plates; blocked with 5% soya milk in PBS; 100 uL soluble fraction (~0.065 mg/mL total protein), 2 h at room temperature; detection with anti-His-HRP and ABTS, Abs 405 nm

Molecule: SMGLPPGWDEYKT VLYSG GKTYYYNH IMSL KTSTWTDPRMSS [Clone H6, WW domain clone against human IgG, loops VLYSG / IMSL]
- ELISA signal [1]: High (high binders (Abs>0.4))

Molecule: SMGLPPGWDEYKT FEIVM GKTYYYNH MHTD KTSTWTDPRMSS [Clone D10, WW domain clone against human IgG, loops FEIVM / MHTD]
- ELISA signal [1]: Moderate

Molecule: SMGLPPGWDEYKT SMALL GKTYYYNH YTPG KTSTWTDPRMSS [Clone C8, WW domain clone against human IgG, loops SMALL / YTPG]
- ELISA signal [1]: Moderate

Molecule: SMGLPPGWDEYKT SLSRP GKTYYYNH EEPS KTSTWTDPRMSS [Clone G3, WW domain clone against human IgG, loops SLSRP / EEPS]
- ELISA signal [1]: High (high binders (Abs>0.4))

Molecule: SMGLPPGWDEYKT YRVMV GKTYYYNH LYRL KTSTWTDPRMSS [Clone H3, WW domain clone against human IgG, loops YRVMV / LYRL]
- ELISA signal [1]: High (high binders (Abs>0.4))

Molecule: C S GK LPPGW E E R KTRRFKLG R TYYYNHHILSKTS Q W EH PR G SSS GK LPPGW E E R KTRRFKLG R TYYYNHHILSKTS Q W EH PR G SS [Clone E6_M2_T2]
- EC50 ([2]; E6_M2_T2, hIgG-FITC 25 nM, ligand from 695 nM 1:2 dilutions, PBS1x-0.05% (v/v) Tween-20 pH 7.4, 25 °C, n = 3): 157 nM
- Kd ([2]; E6_M2_T2, hIgG-FITC 25 nM, ligand from 695 nM 1:2 dilutions, PBS1x-0.05% (v/v) Tween-20 pH 7.4, 25 °C, n = 3, read-out: dissociation constant, KD): 62 ± 14 nM
- KD relative to KD of E6 native sequence ([2]; human IgG): half of the dissociation constant estimated for the E6 native sequence
- aggregation compared with the monomeric version [3]: aggregates less than the monomeric version
- solubility compared with native counterpart E6 ([3]; IMAC purification without chaotropic agents): higher solubility than the native counterpart
- precipitation during size exclusion chromatography ([3]; Superdex 75 Increase 10/300 GL, PBS1x, 16 °C): did not observe any precipitation
- stability compared with E6_M2 ([3]; after dialysis and during size exclusion chromatography): more stable
- precipitation / solubility after dialysis ([3]; dialysis against PBS1x pH 7.4, up to 48 h at 16 °C): always soluble

Molecule: SMGLPPGWDEYKT TLAGL GKTYYYNH YTPG KTSTWTDPRMSS [Clone G9, WW domain clone against human IgG, loops TLAGL / YTPG]
- ELISA signal [1]: Moderate

Molecule: SMGLPPGWDEYKT ALSRW GKTYYYNH DWNP KTSTWTDPRMSS [Clone H7, WW domain clone against human IgG, loops ALSRW / DWNP]
- ELISA signal [1]: Moderate

Molecule: SMGLPPGWDEYKT TMAWL GKTYYYNH YTPG KTSTWTDPRMSS [Clone A5, WW domain clone against human IgG, loops TMAWL / YTPG]
- ELISA signal [1]: High (high binders (Abs>0.4))

Molecule: SMGLPPGWDEYKT AFSRA GKTYYYNH YLEE KTSTWTDPRMSS [Clone G5, WW domain clone against human IgG, loops AFSRA / YLEE]
- ELISA signal [1]: High (high binders (Abs>0.4))

Molecule: SMGLLPGWDEYKT WVVDV GKTYYYNH FKVS KTSTWTDPRMSS [Clone H8, WW domain clone against human IgG, loops WVVDV / FKVS]
- ELISA signal [1]: Moderate

Molecule: SMGLPPGWDEYKTRRFKLGKTYYYNHHILSKTSTWTDPRMSS (designed binder) [E6 in pET21a with C-terminal histidine tag]
- ELISA binding signal relative to the negative control (E. coli Rosetta extract) [4]: 1.5 fold

Molecule: CSGKLPPGWEERKTRRFKLGRTYYYNHHILSKTSQWEHPRGSS (designed binder) [E6_M2]
- ELISA binding signal relative to the negative control (E. coli Rosetta extract) [4]: 2 fold
- ELISA binding signal relative to the scaffold framework WWp5 4 [4]: 2 fold
